{"source": "patent US20240238268A1", "about": "“TREATMENTS AND METHODS FOR TREATING ALZHEIMER'S DISEASE” (Board of Supervisors of Louisiana State University and …, priority 2021, published 2024)", "key": {"VCAM-1": {"system": "VCAM-1", "experiment": "VCAM-1 level, protein chip assay", "type": "in vivo, mouse", "details": "aged 3xTg-AD female mice; cortex and hippocampus; 30 mg/kg, 7 days, IP", "experimental": "FIGS. 19A-19F are six graphs showing PRMT4 inhibitor (TP-064) reduced ICAM-1, VCAM-1 and enhanced E-Cadherin protein levels in aged female 3xTg-AD mice. In FIGS. 19A-19D, aged 3xTg-AD female mice v. […] Adhesion molecules were assessed via protein chip assay in the cortex and hippocampus. * p<0.05 evaluated by one-way ANOVA with Tukey's post-hoc analyses."}, "iNOS": {"system": "iNOS", "experiment": "iNOS protein level in brain, capillary-phoresis", "type": "in vivo, mouse", "details": "treated 3xTg-AD mice; control = 100%", "source_text": "Capillary-phoresis immunoassay via ProteinSimple®: Quantification of all protein targets was achieved using Simple Western analysis in a Jess™ apparatus per the manufacturer's protocol (ProteinSimple, Bio-techne, Minneapolis, MN). Protein was extracted from dissected tissue in an extraction buffer consisting of T-PER® Tissue Protein Extraction Reagent (Cat. No. 78510, Thermo Fischer Scientific, Waltham, MA) and Halt™ Protease Inhibitor Cocktail (Cat. No. 87785, Thermo Fischer Scientific, Waltham, MA). Following homogenization and centrifugation (10,000×g, 5 min, 4° C.), protein concentration was determined in tissue protein supernatant samples using DC Protein Assay (Cat. No. 5000112, Bio-Rad Laboratories, Hercules, California) according to manufacturer instructions. […] Antibody diluent (ProteinSimple, Bio-techne, Minneapolis, MN) was used for all antibody dilutions as follows: PRMT4 (1:50, RRID: AB_2068436), PRMT6 (1:100, Cell Signaling Technology cat. 14641), eNOS (1:200, RRID: AB_10850618), nNOS (1:100, RRID: AB_2152488), iNOS (1:100, RRID: AB_10000625), DDAH2 (1:50, RRID: AB_2640442) Antibodies were detected using HRP-conjugated secondary anti-rabbit, and -mouse. Relative protein levels were calculated by measuring the area under the peak of a chemiluminescent chromatogram and normalized to total capillary chemiluminescence for a given sample. […]"}}}
{"smiles": "CNCCN1CCC(c2cc(CN(C)C(=O)c3cccc(Oc4ccccc4)c3)ccn2)CC1", "note": "[TP-064, N-Methyl-N-((2-(1-(2-(methylamino)ethyl)piperidin-4-yl)pyridin-4-yl)methyl)-3-phenoxybenzamide]", "values": [{"measurement": "VCAM-1 level", "setting": "VCAM-1", "value": "decreased"}, {"measurement": "iNOS level in cortical lysates", "setting": "iNOS", "value": "197%±24.1"}, {"measurement": "iNOS level in hippocampal lysates", "setting": "iNOS", "value": "157%±17.5"}]}
